Results as given in patent US12662462B2, “Salts of pyridinylmethylenepiperidine derivatives and uses thereof” (SUNSHINE LAKE PHARMA CO., LTD., priority 2020, dated 2026).
Where two headings read alike, the source gives them in different places.

How the values were obtained:
[1] = Solubility experiment in water; assay type: physicochemical
Experimental: The solubility of the present invention was determined using an Agilent 1200 High Performance Liquid Chromatograph DAD/VWD detector with an Agilent XDB-C18 model (4.6×50 mm, 5 μm). Detection wavelength was 266 nm, flow rate was 1.0 mL/min, the column temperature was 35° C., mobile phase A: acetonitrile: 0.01 M ammonium acetate=10:90 (V:V), analysis methods: acetonitrile: mobile phase A=70:30 (V:V), running time was 10 minutes.
The test sample was taken into 37° C. organic ultrapure water to prepare a supersaturated solution. After shaking for 24 h, the mixture was filtered with an aqueous filter membrane to obtain the filtrate. The solubility of the test sample in water was detected by HPLC.

[2] = Pharmacokinetic experiment in Beagle dogs; assay type: in vivo, Beagle dog; conditions: oral capsules, 5 mg/kg
Experimental: The inventors conducted a pharmacokinetic evaluation of the salt or its crystal form of the present invention in Beagle dogs.
The test sample (i.e., the salt or crystal form of the present invention, or the compound having formula (I) of the present invention) was filled into capsules for oral administration. The animals were fasted for 12 h before the administration, and they had free drinking water. Capsules containing test samples were administered orally at a dose of 5 mg/kg. After administration, intravenous blood was collected at the following time points (about 0.15 mL of blood taken): 0.25, 0.5, 1.0, 2.0, 4.0, 6.0, 8.0 and 24 h. EDTA-K2 was added as an anticoagulant in the blood collection tube in advance, the blood sample was centrifuged at 12,000 rpm for 2 minutes, the plasma was collected, and stored at −20° C. or −70° C.
After processing the plasma samples collected above (after the frozen plasma was thawed at room temperature, it was whirled for 5 minutes to mix well, then 20 μL of plasma was taken, 120 μL of acetonitrile solution containing internal standard was added, the mixture was whirled for 5 minutes to mix well, and centrifuged at 4,000 rpm for 5 minutes, then 100 μL of the supernatant was taken, 130 μL of methanol-water (V/V=1/1) was added to mix well), a standard curve with a suitable range was established according to the concentration of the test sample, and the LC-MS/MS with AB SCIEX API5500 was used, the concentration of the test sample in the plasma sample was determined in the MRM mode, and quantitative analysis was performed. Pharmacokinetic parameters were calculated according to drug concentration-time curve using a non-compartmental method by WinNonLin 6.3 software.

[3] = Hygroscopicity experiment; assay type: physicochemical; conditions: 25° C., saturated ammonium chloride solution desiccator, 24 hours
Experimental: 1) A dry stoppered glass weighing bottle (outer diameter of 50 mm, height of 15 mm) was taken the day before, and placed in a 25° C.±1° C. constant temperature desiccator (a saturated ammonium chloride solution was placed at the bottom), and the weighing bottle was weighed accurately (m1).
2) An appropriate amount of the test sample was taken, and spread flat in the above weighing bottle, the thickness of the test sample was generally about 1 mm, and the weighing bottle was weighed accurately (m2).
3) The weighing bottle was open and placed under the above constant temperature and humidity conditions with the bottle cap for 24 hours.
4) The bottle cap was covered on the weighing bottle, and weighed accurately (m3), and calculate: the percentage increase in weight %=(m3−m2)/(m2−m1)×100%

[4] = Stability experiment (high temperature, high humidity, light); assay type: physicochemical
Experimental: (§1) (1) High temperature experiment: an appropriate amount of a batch of test samples were taken into flat weighing bottles, and spread into a thin layer ≥5 mm thick. The above weighing bottles were placed in a constant temperature box at 40° C.±2° C./75%±5% RH and/or 60° C.±2° C./75%±5% RH for 30 days, the samples were taken on the 5th, 10th, and 30th days, and tested according to the key stability inspection items: the color changes of the samples were observed, the purities of the samples were checked by HPLC, and the structure of the samples were analyzed by X-ray powder diffraction.
as §1, with “(2)” for “(1)”, “humidity” for “temperature”, “placed” for “placed in a constant temperature box”, “25° C.,” for “40° C.±2° C./75%±5%”, “75%±5% or RH 90%±5%” for “and/or 60° C.±2° C./75%±5%”, “structures” for “structure”
as §1, with “(3) Light” for “(1) High temperature”, “placed and opened” for “placed”, “light” for “constant temperature”, “box (with UV)” for “box”, “the illuminance 4500±500 lx, UV light ≤0.7 w·h/m^2” for “40° C.±2° C./75%±5% RH and/or 60° C.±2° C./75%±5% RH”, “structures” for “structure”

[5] = High humidity (25° C., RH 75% ± 5%), the 5th day
[6] = High humidity (25° C., RH 75% ± 5%), the 10th day
[7] = High humidity (25° C., RH 75% ± 5%), the 30th day
[8] = High humidity (25° C., RH 90% ± 5%), the 5th day
[9] = High humidity (25° C., RH 90% ± 5%), the 10th day
[10] = High humidity (25° C., RH 90% ± 5%), the 30th day
[11] = High temperature (40° C.), the 5th day
[12] = High temperature (40° C.), the 10th day
[13] = High temperature (40° C.), the 30th day
[14] = High temperature (60° C.), the 5th day
[15] = High temperature (60° C.), the 10th day
[16] = High temperature (60° C.), the 30th day

In the case of `CN1CCC(=C(F)c2cccc(NC(=O)c3c(F)cc(F)cc3F)n2)CC1` [Compound having formula (I), 2,4,6-trifluoro-N-(6-(fluoro(1-methylpiperidin-4-ylidene)methyl)pyridin-2-yl)benzamide], the “Water solubility (in words)” value [1] is reported as “poor water solubility”, the solubility thermodynamic at 24 h ([1]; thermodynamic from solid, 37° C. water, shaking for 24 h, read-out: Concentration of compound having formula (I) in saturated aqueous solution) is reported as 2590 µg/mL and the AUC(0-t) ([2]; dog, plasma) is reported as 117 ng·h/mL. The Cmax ([2]; dog, plasma, read-out: Cmax) was 32.8 ng/mL and the Tmax ([2]; dog, plasma, read-out: Tmax) was 3.67 h.

In the case of `CN1CCC(=C(F)c2cccc(NC(=O)c3c(F)cc(F)cc3F)n2)CC1.O=S(=O)(O)c1ccccc1` [Example 3], the “Concentration of compound having formula (I) in saturated aqueous solution” value ([1]; 37° C. water, shaking for 24 h) is reported as 1.89 mg/mL.

With `CN1CCC(=C(F)c2cccc(NC(=O)c3c(F)cc(F)cc3F)n2)CC1.CS(=O)(=O)O` [Example 1] the Hygroscopic feature [3] was “no or almost no hygroscopicity”, the Appearance ([4]; 0 day) was “white” and the Purity ([4]; 0 day) was 99.66%. For the same molecule, the Appearance [4, 5] was “white”, the Purity [4, 5] was 99.71% and the Appearance [4, 6] was “white”. The Purity [4, 6] was 99.74%, the Appearance [4, 7] was “white” and the Purity [4, 7] was 99.77%. The Appearance [4, 8] was “white”, the Purity [4, 8] was 99.68% and the Appearance [4, 9] was “white”. For the same molecule, the Purity [4, 9] was 99.71%, the Appearance [4, 10] was “white” and the Purity [4, 10] was 99.72%. The Appearance [4, 11] was “white”, the Purity [4, 11] was 99.73% and the Appearance [4, 12] was “white”. The Purity [4, 12] was 99.72%, the Appearance [4, 13] was “white” and the Purity [4, 13] was 99.79%. The Appearance [4, 14] was “white”, the Purity [4, 14] was 99.72% and the Appearance [4, 15] was “white”. The Purity [4, 15] was 99.74%, the Appearance [4, 16] was “white” and the Purity [4, 16] was 99.8%. The Appearance ([4]; Light, the 5th day) was “white”, the Purity ([4]; Light, the 5th day) was 99.59% and the Appearance ([4]; Light, the 10th day) was “white”. For the same molecule, the Purity ([4]; Light, the 10th day) was 99.43%, the Appearance ([4]; Light, the 30th day) was “white” and the Purity ([4]; Light, the 30th day) was 97.66%. The “Changes of appearance, purity and crystal form” value ([4]; high temperature, high humidity and light, 30 days) was “no obvious changes”, the “Concentration of compound having formula (I) in saturated aqueous solution” value ([1]; 37° C. water, shaking for 24 h) was 300.88 mg/mL and the AUClast [2] was 238 ng·h/mL. It also gave a Cmax [2] of 99.9 ng/mL and a Tmax [2] of 0.667 h.
